Where two headings read alike, the source gives them in different places.
Experiments:
[1] = tested on: progranulin mRNA expression in primary cortical neurons; test: Progranulin mRNA expression by quantitative PCR in primary cortical neurons; format: cell-based, rat; settings: for increase in progranulin mRNA expression: after 8 h of treatment, primary cortical neurons
Procedure: (§1) Primary cortical (Cx) and hippocampal (Hp) neurons are derived from E17 Sprague-Dawley rats and cultured in 24-well plates (325,000 cells/well for Cx and 250,000 cells/well for Hp). Half of the medium is replaced with fresh medium every four days. On day 10 of culture, neurons are incubated in the presence of different concentrations (0.1-3 μM) of a compound of the invention, e.g., Compound 1, for 2-24 h. At specific time points, conditioned medium is removed and frozen until needed for ELISA assay. Cells are washed with PBS and RNA is extracted with Qiazol reagent using the RNeasy kit from Qiagen (Valencia, Calif.) following manufacturer instructions. RNA is then transcribed into cDNA using the high capacity cDNA reverse transcription kit from Applied Biosystems (Carlsbad, Calif.) according to kit instructions.
Relative progranulin gene expression is measured by quantitative PCR using rat-specific probes (Applied Biosystems, Carlsbad, Calif.) for the granulin gene and for Rp113a as a reference gene. The ΔΔCt method is used for calculations of relative gene expression levels (Pfaffl, Nucleic Acids Res., 2001). This method compares expression of the different genes (reference and gene of interest) in cells treated with vehicle versus the compound of the invention. Moreover, this measurement and analysis of mRNA levels is expected to be predictive of the expression of progranulin protein levels.
Neuronal granulin gene expression was measured at different time points as described in Example 1 (1, 4, 6, 8, 10, 18 and 24 h) following treatment with (Z)-4-(dibenzo[b,f][1,4]oxazepin-11-yl)-N-hydroxybenzamide

[2] = Brain penetration (brain:plasma ratio of drug levels) after acute and repeated dosing; format: in vivo; settings: rodents
[3] = Maximum Tolerated Dose in humans, oral dosing; format: in vivo; settings: healthy volunteers
[4] = tested on: progranulin mRNA in lymphoblasts from progranulin mutation carriers; test: Progranulin mRNA expression in FTLD patient lymphoblast cell lines (qPCR); format: cell-based, human; settings: 3 μM, after 24 h
Procedure: (§2) Immortalized (Epstein-Barr-Virus) B-lymphocytes isolated from the peripheral blood of patients subject harboring different mutations in the granulin gene were used to measure effects of compounds on progranulin mRNA and protein expression. The cell lines were maintained in complete growth medium (cGM), comprised of RPMI 1640 medium supplemented with 15% heat-inactivated FBS, 4 mM L-Glutamine and 1% Penicillin/Streptomycin. Cells were seeded into 24-well tissue-culture plates at a density of 400,000-500,000 cells per well in cGM. Following an overnight incubation, the cells were treated with 0.3 or 3 μM of Compound 1. Following an 8- or 24-hour exposure to Compound 1, cells were collected, spun, and the resulting cell pellets underwent a single rinse in chilled PBS.
(§3) For analysis of progranulin mRNA expression, samples were analyzed as described in Example 1, with the exception that probes specific for the human granulin gene (Applied Biosystems, Carlsbad, Calif.) were used.

[5] = tested on: progranulin protein in lymphoblasts from progranulin mutation carriers; test: Progranulin protein expression in FTLD patient lymphoblast cell lines (ELISA); format: cell-based, human; settings: 3 μM, after 24 h
Procedure: as §2
(§4) For analysis of progranulin protein expression, cell pellets were re-suspended in 150 μl of chilled RIPA Lysis Buffer supplemented with a protease-inhibitor cocktail and incubated for 15-20 minutes at 4° C. to allow for cell lysis. Total protein concentrations of each sample were determined by performing a BCA protein assay (Pierce). Quantitative determination of Progranulin protein levels was performed by ELISA (AdipoGen, Incheon, South Korea), using a 1:20 dilution of the cell lysate following the manufacturer protocol. […]

[6] = tested on: progranulin mRNA in primary fibroblasts from progranulin mutation carriers; test: Progranulin mRNA expression in primary fibroblasts from progranulin mutation carriers (qPCR); format: cell-based, human; settings: 3 μM, after 8 h
Procedure: as §3
(§5) Primary fibroblasts from patients harboring different mutations in the progranulin gene were isolated and maintained in complete growth medium (cGM), comprised of D-MEM supplemented with 10% heat-inactivated FBS and 1% Penicillin/Streptomycin. The fibroblasts were seeded into 6-well tissue-culture plates at a density of 150,000-190,000 cells per well in cGM. Following overnight incubation, the cells were treated with 0.3 or 3 μM of Compound 1. Analysis of progranulin mRNA expression was performed as described in Example 4. Analysis of progranulin protein was performed as described in Example 4.

[7] = tested on: progranulin protein in primary fibroblasts from progranulin mutation carriers; test: Progranulin protein expression in primary fibroblasts from progranulin mutation carriers (ELISA); format: cell-based, human; settings: 0.3 μM, after 8 h
Procedure: For analysis of progranulin protein expression, cell pellets were re-suspended in 150 μl of chilled RIPA Lysis Buffer supplemented with a protease-inhibitor cocktail and incubated for 15-20 minutes at 4° C. to allow for cell lysis. Total protein concentrations of each sample were determined by performing a BCA protein assay (Pierce). Quantitative determination of Progranulin protein levels was performed by ELISA (AdipoGen, Incheon, South Korea), using a 1:20 dilution of the cell lysate following the manufacturer protocol. Progranulin levels were expressed relative to protein amount, and compound treatment groups were expressed relative to the vehicle-treated group.
as §5

[8] = tested on: progranulin protein in immortalized lymphoblasts from a normal human subject; test: Progranulin protein by western blot in immortalized lymphoblasts from a normal human subject; format: cell-based; settings: 24 h
Procedure: Cellular protein from immortalized (Epstein-Barr-Virus) B-lymphocytes isolated from the peripheral blood of normal human volunteers was isolated as described in Example 4. Cells were treated with Compound 1 for 24 h. For Western Blotting analysis of progranulin protein, 50 μg of total cellular protein were separated on a 4-12% Bis-Tris Poly-Acrylamide gel using MOPS Running Buffer, transferred to a PVDF membrane and probed with a R & D Systems (Minneapolis, Minn.) mouse monoclonal anti-human progranulin antibody, followed by an IRDye secondary antibody (Rockland). Detection was performed using the Li-COR Odyssey imaging system. Progranulin signals (Integrated Intensity after background subtraction) were quantified using Li-COR Odyssey software.

[9] = tested on: progranulin mRNA in cerebral cortex; test: Progranulin mRNA expression in mouse cerebral cortex (qPCR); format: in vivo, C57BL/6 mice; settings: normal mice, 100 mg/kg oral, 8 h after acute dosing
Procedure: (§6) C57BL/6 mice (n=6/group; Charles River) were treated with either vehicle (1% carboxymethylcellulose-medium viscosity/0.5% Tween 80 (99.5:0.5 v/v)) or with an oral dose of 100 mg/kg of Compound 1 prepared in the same vehicle. Animals were sacrificed at specific time points and the brain extracted. Left and right hemisphere of the cerebral cortex were separated and used for RNA and protein extractions.
RNA was extracted with Qiazol reagent using the RNeasy lipid-rich tissue kit from Qiagen (Valencia, Calif.) following manufacturer instructions. RNA was then transcribed into cDNA using the high capacity cDNA reverse transcription kit from Applied Biosystems (Carlsbad, Calif.), according to kit instructions. Relative progranulin gene expression was measured by quantitative PCR using mouse-specific probes (Applied Biosystems, Carlsbad, Calif.) for the granulin gene, and for Rp113a as a reference gene. The ΔΔCt method was used for calculations of relative gene expression levels (Pfaffl, Nucleic Acids Res., 2001). This method compares expression of the different genes (reference and gene of interest) in animals treated with vehicle versus the compound of the invention (FIG. 5A).

[10] = tested on: progranulin protein in cerebral cortex; test: Progranulin protein levels in mouse cerebral cortex (ELISA); format: in vivo, C57BL/6 mice; settings: normal mice, 100 mg/kg oral, 8 h after acute dosing
Procedure: as §6
Proteins were extracted in 50 mM Tris pH 7.4/150 mM NaCl/0.1% SDS with protease inhibitors using an extraction ratio of 200 mg of brain tissue per ml buffer. Sample was spun for 20 minutes at 16,200 g and supernatant collected. Progranulin levels were measured using a 1:4 dilution of the tissue extract (FIG. 5B) with a mouse ELISA kit from Adipogen (Incheon, South Korea) according to the manufacturer instructions. Progranulin levels were normalized to total protein concentration as measured by the BCA method (Pierce).

[11] = tested on: progranulin protein in CSF and plasma; test: Progranulin levels in rat CSF and plasma (ELISA); format: in vivo, Sprague Dawley rats; settings: normal rats, 100 mg/kg intra-peritoneally
Procedure: Sprague Dawley rats (n=12/group; Charles River) were dosed intra-peritoneally with either vehicle (Solutol HS 15/Ethanol (3:2 v/v)) or with a dose of 100 mg/kg of Compound 1 prepared in the same vehicle. EDTA-Plasma and CSF were collected after 4 and 8 hours of treatment, and progranulin levels were assessed by ELISA (Adipogen, Incheon, South Korea) using a 1:2 dilution for CSF (FIG. 6A) and a 1:25 dilution for plasma (FIG. 6B).

[12] = tested on: progranulin protein in rat primary cortical neurons; test: Progranulin protein expression in rat primary cortical neurons (ELISA); format: cell-based; settings: 3 μM, after 8 h
Procedure: as §1, §4

[13] = tested on: acetylation of histones in the brain; test: Acetylation of histones in the brain of mice, required free plasma exposure; format: in vivo
[14] = cancer patients, oral; cited from earlier work

Row | Compound | increase in progranulin mRNA expression ([1]; 0.3 μM) | increase in progranulin mRNA expression ([1]; 3 μM) | increase in progranulin gene expression ([1]; lowest dose (0.1 μM), as soon as 4 h after treatment, sustained for 24 h) | Kp ([2]; acute and repeated dosing, read-out: brain:plasma (b:p) ratio for drug levels) | Maximum Tolerated Dose (MTD), not observed at highest dose used [3] | increase in progranulin mRNA [4] | increase in progranulin protein expression [5] | increase in progranulin mRNA [6] | increase in progranulin protein expression [7] | increase in progranulin protein (western blot) ([8]; 0.3 μM) | increase in progranulin protein (western blot) ([8]; 3 μM) | increase in progranulin mRNA in brain (cerebral cortex) [9] | increase in progranulin protein levels in brain (cerebral cortex) [10] | increase in CSF progranulin protein ([11]; 4 h after acute dosing) | increase in plasma progranulin protein levels ([11]; concomitantly (4 h after acute dosing)) | increase in progranulin protein expression [12] | Kp ([2]; acute dosing experiments, read-out: brain:plasma (b:p) ratio) | excess of plasma protein unbound ('free') drug required to produce acetylation of histones in the brain, compared to Compound 1 [13] | Maximum Tolerated Dose (MTD) [14]
1 | O=C(NO)c1ccc(C2=Nc3ccccc3Oc3ccccc32)cc1 [Compound 1, (Z)-4-(dibenzo[b,f][1,4]oxazepin-11-yl)-N-hydroxybenzamide] | ~2 fold | ~5 fold | ~40% | ~5 | > 400 mg | 2.4 fold | 1.5 fold | 1.3 fold | 1.1 fold | 1.3 fold | 1.6 fold | 1.45 fold | about 1.16 fold | about 1.9 fold | about 1.4 fold | 1.77 fold |  |  | 
2 | O=C(CCCCCCC(=O)Nc1ccccc1)NO [SAHA] |  |  |  |  |  |  |  |  |  |  |  |  |  |  |  |  | ~0.1 | ~30 fold | 400 mg
